Source: patent US10329289B2, “6,7-dihydro-5H-pyrrolo[3,4-B]pyridin-5-one allosteric modulators of the M4 muscarinic acetylcholine receptor” (Merck Sharp & Dohme Corp., priority 2015, dated 2019)
pEC50: −log10 of the molar value.

These compounds were tested against T1, human M4 muscarinic acetylcholine receptor (Homo sapiens, UniProt P08173) (assay: human FLIPR-based M4 PAM assay (Ca2+ mobilization, CHO-K1 cells with human M4 receptor and Gαqi5)). Conditions: acetylcholine at 20% of maximum response, read-out: M4 PAM IP.
T1 construct: expressed in transfected cells; host or cells: CHO-K1
T1 sequence (P08173 1-479): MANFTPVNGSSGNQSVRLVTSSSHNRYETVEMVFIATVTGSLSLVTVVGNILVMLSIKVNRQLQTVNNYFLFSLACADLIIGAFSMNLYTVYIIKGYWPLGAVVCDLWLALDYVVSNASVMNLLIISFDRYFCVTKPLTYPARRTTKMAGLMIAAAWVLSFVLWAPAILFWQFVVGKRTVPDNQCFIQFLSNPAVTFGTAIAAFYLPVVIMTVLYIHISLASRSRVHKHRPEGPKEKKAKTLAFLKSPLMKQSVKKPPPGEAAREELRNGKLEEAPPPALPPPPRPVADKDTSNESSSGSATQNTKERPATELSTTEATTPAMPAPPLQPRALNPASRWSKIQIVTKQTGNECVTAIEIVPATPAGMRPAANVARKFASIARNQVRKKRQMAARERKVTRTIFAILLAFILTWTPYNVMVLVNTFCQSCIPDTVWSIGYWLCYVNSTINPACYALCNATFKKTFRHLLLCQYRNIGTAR
Assay type: cell-based
In short: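 CHO-K1 cells stably expressing human M4 and chimeric Gαqi5 were dye-loaded ~1 h at 37 °C and read for Ca2+ fluorescence. Compound followed by acetylcholine at an EC20 (sometimes an EC70 third addition); inflection point from a 4-parameter logistic fit.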

| SMILES | pEC50 |
| --- | --- |
| Cc1cc2c(nc1N1CCC(OCC(C)C(F)(F)F)CC1)CNC2=O (stereo not drawn) [Example 188, 3-methyl-2-(4-(3,3,3-trifluoro-2-methylpropoxy)piperidin-1-yl)-6,7-dihydro-5H-pyrrolo[3,4-b]pyridin-5-one] | 5.91 |
| Cc1cc2c(nc1N1CCC(OCC3(C(F)(F)F)CC3)CC1)CNC2=O [Example 189, 3-methyl-2-(4-((1-(trifluoromethyl)cyclo-propyl)methoxy)piperidin-1-yl)-6,7-dihydro-5H-pyrrolo[3,4-b]pyridin-5-one] | 6.58 |
| COC(=O)c1c(C)c(N2CCC(Oc3ccc(OC)nc3)CC2)nc2c1C(=O)NC2 [Example 190, methyl 2-(4-((6-methoxypyridin-3-yl)oxy)piperidin-1-yl)-3-methyl-5-oxo-6,7-dihydro-5H-pyrrolo[3,4-b]pyridine-4-carboxylate] | 5.25 |
| Cc1cc2c(nc1N1CCC(OCc3cnn(C)c3)CC1)CNC2=O [Example 190A, 3-methyl-2-(4-((1-methyl-1H-pyrazol-4-yl)methoxy)piperidin-1-yl)-6,7-dihydro-5H-pyrrolo[3,4-b]pyridin-5-one] | 6.09 |
| Cc1cc2c(nc1N1CCC(OCC3CCCCC3)CC1)CNC2=O [Example 191, 2-(4-(cyclohexylmethoxy)piperidin-1-yl)-3-methyl-6,7-dihydro-5H-pyrrolo[3,4-b]pyridin-5-one] | 6.31 |
| Cc1cc2c(nc1N1CCC(OCC(C)C)CC1)CNC2=O [Example 192, 2-(4-isobutoxypiperidin-1-yl)-3-methyl-6,7-dihydro-5H-pyrrolo[3,4-b]pyridin-5-one] | 6.51 |
| COC1(COC2CCN(c3nc4c(cc3C)C(=O)NC4)CC2)CC1 [Example 193, 2-(4-((1-methoxycyclopropyl)methoxy)piperidin-1-yl)-3-methyl-6,7-dihydro-5H-pyrrolo[3,4-b]pyridin-5-one] | 5.91 |
| Cc1cc2c(nc1N1CCC(Oc3cnc4c(c3)CCCO4)CC1)CNC2=O [Example 194, 2-(4-((3,4-dihydro-2H-pyrano[2,3-b]pyridin-6-yl)oxy)piperidin-1-yl)-3-methyl-6,7-dihydro-5H-pyrrolo[3,4-b]pyridin-5-one] | 6.27 |
| Cc1c(N2CC[C@@H](Oc3ccc4c(c3)COCC4)[C@@H](F)C2)nc2c(c1C)C(=O)NC2 [Example 194A, 2-((3S,4R)-3-fluoro-4-(isochroman-7-yloxy)piperidin-1-yl)-3,4-dimethyl-6,7-dihydro-5H-pyrrolo[3,4-b]pyridin-5-one] | 7.70 |
| Cc1cc2c(nc1N1CC[C@@H](Oc3ccc(F)cc3)[C@@H](F)C1)CNC2=O [Example 196, 2-((3S,4R)-3-fluoro-4-(4-fluorophenoxy)piperidin-1-yl)-3-methyl-6,7-dihydro-5H-pyrrolo[3,4-b]pyridin-5-one] | 7.66 |
| Cc1cc2c(nc1N1CCC(Oc3cnc4[nH]nc(C)c4c3)CC1)CNC2=O [Example 197, 3-methyl-2-(4-((3-methyl-1H-pyrazolo[3,4-b]pyridin-5-yl)oxy)piperidin-1-yl)-6,7-dihydro-5H-pyrrolo[3,4-b]pyridin-5-one] | 5.22 |
| CCc1cc2c(nc1N1CCC(Oc3ccc4c(c3)OCC4)CC1)CNC2=O [Example 198A, 2-(4-((2,3-dihydrobenzofuran-6-yl)oxy)piperidin-1-yl)-3-ethyl-6,7-dihydro-5H-pyrrolo[3,4-b]pyridin-5-one] | 6.96 |
| CCc1cc2c(nc1N1CCC(Oc3ccc4c(c3)COCC4)CC1)CNC2=O [Example 200, 3-ethyl-2-(4-(isochroman-7-yloxy)piperidin-1-yl)-6,7-dihydro-5H-pyrrolo[3,4-b]pyridin-5-one] | 7.02 |
| CCc1cc2c(nc1N1CCC(Oc3ccc4c(c3)CCOC4)CC1)CNC2=O [Example 200A, 3-ethyl-2-(4-(isochroman-6-yloxy)piperidin-1-yl)-6,7-dihydro-5H-pyrrolo[3,4-b]pyridin-5-one] | 7.24 |
| CCc1cc2c(nc1N1CCC(Oc3cccnc3)CC1)CNC2=O [Example 201, 3-ethyl-2-(4-(pyridin-3-yloxy)piperidin-1-yl)-6,7-dihydro-5H-pyrrolo[3,4-b]pyridin-5-one] | 6.64 |
| Cc1cc2c(nc1N1CCC(Oc3cnc4c(c3)CCO4)CC1)CNC2=O [Example 201A, 2-(4-((2,3-dihydrofuro[2,3-b]pyridin-5-yl)oxy)piperidin-1-yl)-3-methyl-6,7-dihydro-5H-pyrrolo[3,4-b]pyridin-5-one] | 7.17 |
| CCc1cc2c(nc1N1CCC(Oc3ccccc3)CC1)CNC2=O [Example 202, 3-ethyl-2-(4-phenoxypiperidin-1-yl)-6,7-dihydro-5H-pyrrolo[3,4-b]pyridin-5-one] | 6.83 |
| Cc1cc2c(nc1N1CCC(OCc3ccccn3)CC1)CNC2=O [Example 205A, 3-methyl-2-(4-(pyridin-2-ylmethoxy)piperidin-1-yl)-6,7-dihydro-5H-pyrrolo[3,4-b]pyridin-5-one] | 5.25 |
| Cc1cc2c(nc1N1CCC(Oc3cnc4[nH]ncc4c3)CC1)CNC2=O [Example 206, 2-(4-((1H-pyrazolo[3,4-b]pyridin-5-yl)oxy)piperidin-1-pyrazolo[3,4-b]yl)-3-methyl-6,7-dihydro-5H-pyrrolo[3,4-b]pyridin-5-one] | 6.23 |
| Cc1cc2c(nc1N1CCC(Oc3ccc4c(c3)CCOC4)CC1)CNC2=O [Example 207, 2-(4-(isochroman-6-yloxy)piperidin-1-yl)-3-methyl-6,7-dihydro-5H-pyrrolo[3,4-b]pyridin-5-one] | 7.52 |
| Cc1cc2c(nc1N1CCC(Oc3ccc4c(c3)OC(F)(F)O4)CC1)CNC2=O [Example 208, 2-(4-((2,2-difluorobenzo[d][1,3]dioxol-5-yl)oxy)piperidin-1-yl)-3-methyl-6,7-dihydro-5H-pyrrolo[3,4-b]pyridin-5-one] | 6.48 |
| Cc1cc2c(nc1N1CCC(Oc3ccc4c(c3)CS(=O)(=O)C4)CC1)CNC2=O [Example 208A, 2-(4-((2,2-dioxido-1,3-dihydrobenzo[c]thio-phen-5-yl)oxy)piperidin-1-yl)-3-methyl-6,7-dihydro-5H-pyrrolo[3,4-b]pyridin-5-one] | 6.91 |

Next, values leading:

| pEC50 | SMILES |
| --- | --- |
| 7.17 | COCc1ccc(OC2CCN(c3nc4c(cc3C)C(=O)NC4)CC2)cc1 [Example 195, 2-(4-(4-(methoxymethyl)phen-oxy)piperidin-1-yl)-3-methyl-6,7-dihydro-5H-pyrrolo[3,4-b]pyridin-5-one] |
| 6.55 | Cc1cc2c(nc1N1CCC(Oc3ccc4ncnn4c3)CC1)CNC2=O [Example 197A, 2-(4-([1,2,4]triazolo[1,5-a]pyridin-6-yloxy)piperidin-1-yl)-3-methyl-6,7-dihydro-5H-pyrrolo[3,4-b]pyridin-5-one] |
| 7.74 | Cc1cc2c(nc1N1CCC(Oc3ccc4c(c3)OCC4)CC1)CNC2=O [Example 198, 2-(4-((2,3-dihydrobenzofuran-6-yl)oxy)piperidin-1-yl)-3-methyl-6,7-dihydro-5H-pyrrolo[3,4-b]pyridin-5-one] |
| 7.22 | Cc1cc2c(nc1N1CCC(Oc3ccc4c(c3)CO[C@@H]4C)CC1)CNC2=O [Example 199A, (R)-3-methyl-2-(4-((1-methyl-1,3-dihydro-2-benzofuran-5-yl)oxy)piperidin-1-yl)-6,7-dihydro-5H-pyrrolo[3,4-b]pyridin-5-one] |
| 7.14 | Cc1cc2c(nc1N1CCC(Oc3ccc4c(c3)CO[C@H]4C)CC1)CNC2=O [Example 199B, (S)-3-methyl-2-(4-((1-methyl-1,3-dihydro-2-benzofuran-5-yl)oxy)piperidin-1-yl)-6,7-dihydro-5H-pyrrolo[3,4-b]pyridin-5-one] |
| 7.02 | Cc1cc2c(nc1N1CCC(Oc3ccc4nn(C)cc4c3)CC1)CNC2=O [Example 202A, 3-methyl-2-(4-((2-methyl-2H-indazol-5-yl)oxy)piperidin-1-yl)-6,7-dihydro-5H-pyrrolo[3,4-b]pyridin-5-one] |
| 6.27 | COCc1ccc(OC2CCN(c3nc4c(cc3C)C(=O)NC4)CC2)cn1 [Example 203, 2-(4-((6-(methoxymethyl)pyridin-3-yl)oxy)piperidin-1-yl)-3-methyl-6,7-dihydro-5H-pyrrolo[3,4-b]pyridin-5-one] |
| 5.95 | COCCOCc1ccc(OC2CCN(c3nc4c(cc3C)C(=O)NC4)CC2)cn1 [Example 204, 2-(4-((6-((2-methoxyethoxy)methyl)pyridin-3-yl)oxy)piperidin-1-yl)-3-methyl-6,7-dihydro-5H-pyrrolo[3,4-b]pyridin-5-one] |
| 6.62 | COCCOCc1ccc(OC2CCN(c3nc4c(cc3C)C(=O)NC4)CC2)cc1 [Example 205, 2-(4-(4-((2-methoxyethoxy)methyl)phenoxy)piperidin-1-yl)-3-methyl-6,7-dihydro-5H-pyrrolo[3,4-b]pyridin-5-one] |
| 6.59 | Cc1cc2c(nc1N1CCC(Oc3cnn(C)c3)CC1)CNC2=O [Example 206A, 3-methyl-2-(4-((1-methyl-1H-pyrazol-4-yl)oxy)piperidin-1-yl)-6,7-dihydro-5H-pyrrolo[3,4-b]pyridin-5-one] |
| 5.58 | Cc1cc2c(nc1N1CCC(Oc3ccc4c(c3)nc(C)n4C)CC1)CNC2=O [Example 209, 2-(4-((1,2-dimethyl-1H-benzo[d]imidazol-5-yl)oxy)piperidin-1-yl)-3-methyl-6,7-dihydro-5H-pyrrolo[3,4-b]pyridin-5-one] |
